This note sets out measurements from ChEMBL document CHEMBL4390706, “Chemical constituents from the seeds of Cassia obtusefolia and their in vitro α-glucosidase inhibitory and antioxidant activities” (Bioorg Med Chem Lett, 2019).

In brackets after ≈: the same amount, converted by molar mass. A value given as a limit tells only on which side of the number the result lay.

One test is described as follows: Inhibition of baker's yeast alpha-glucosidase using PNPG as substrate preincubated for 15 mins followed by substrate addition and measured after 15 mins. Also noted: species or system Saccharomyces cerevisiae.
Broadly, the IC50 is the point on the concentration scale where inhibition reaches its midpoint. Consider `Cc1cc(O)c2c(c1)C(C1c3cccc(O)c3C(=O)c3c(O)cc(C)cc31)c1cccc(O)c1C2=O` (stereo not given), for which the IC50 worked out at 60.09 µg/mL (≈ 126 µM). On the same count and under the same terms, the same measure for `COc1ccc2c(c1O)C(=O)c1c(cc(C)c(O)c1OC)C2=O`: 183.91 µg/mL (≈ 585 µM); for `COc1cc(O)c2c(O)c3c(=O)oc(C)cc3cc2c1`: 80.01 µg/mL (≈ 294 µM); for `COc1c(C)cc2c(c1O)C(=O)c1c(cc(O)c(OC)c1O)C2=O`: 120.65 µg/mL (≈ 365 µM). Same read-out and setting: with `COc1cc2c(c(O)c1OC)C(=O)c1c(cc(C)c(OC)c1OC)C2=O` the figure was 164.81 µg/mL (≈ 460 µM); with `C[C@H]1O[C@H](O[C@H]2[C@H](O)[C@@H](O)[C@@H](O[C@H]3[C@H](O)[C@@H](O)C(O)O[C@@H]3CO)O[C@@H]2CO)[C@H](O)[C@@H](O)[C@@H]1N[C@H]1C=C(CO)[C@@H](O)[C@H](O)[C@H]1O` (stereo not given in full) [ACARBOSE], less than 5.05 µg/mL; with `COc1c(O)cc2c(c1O)C(=O)c1c(cc(C)c(O)c1OC)C2=O` [AURANTIOOBTUSIN], 107.81 µg/mL (≈ 326 µM).

Regarding `Cc1cc(O)c2c(c1)C(=O)c1cccc(O)c1C2=O` [CHRYSOPHANOL], the 50% inhibitory concentration (IC50) was determined as 50.6 µg/mL (≈ 199 µM).

As for `COc1c(O)c(C)cc2c1C(=O)c1c(O)cccc1C2=O` [OBTUSIFOLIN], the IC50 was 144.64 µg/mL (≈ 509 µM). With `COc1cc(O)c2c(c1)C(=O)c1cc(C)cc(O)c1C2=O` [PHYSCION], the IC50 came out at 22.57 µg/mL (≈ 79.4 µM). On the same count and under the same terms, the same measure for `COc1cc(O)cc2c1C(=O)c1c(O)cc(C)cc1C2=O` [QUESTIN]: 117.94 µg/mL (≈ 415 µM). On the same count and under the same terms, the same measure for `COc1cc(O)c2c(O)c3c(=O)cc(C)oc3cc2c1` [RUBROFUSARIN]: 162.04 µg/mL (≈ 595 µM).

A further test in a line: Antioxidant activity assessed as DPPH radical scavenging activity incubated for 30 mins under dark condition. Type of test: functional.
Turning to `COc1cc(O)c2c(O)c3c(=O)oc(C)cc3cc2c1`, the half-maximal inhibitory concentration (IC50) came out at 78.4 µg/mL (≈ 288 µM).

`O=C1O[C@H]([C@@H](O)CO)C(O)=C1O` [ASCORBIC ACID]: the half-inhibitory concentration (IC50) was found to be 6.48 µg/mL (≈ 36.8 µM). On to `COc1cc(O)c2c(O)c3c(=O)cc(C)oc3cc2c1` [RUBROFUSARIN], for which the IC50 stood at 3.03 µg/mL (≈ 11.1 µM).
